# From BindingDB's records for doi:10.1016/s0960-894x(00)00026-3 (Universit&#224, 2000)
# Test: Inhibition of Clostridium histolyticum collagenase using a linear regression program
row,Structure (SMILES),Ki [µM]
1,"CC(C(=O)NO)N(Cc1ccc([N+](=O)[O-])cc1)S(=O)(=O)C(F)(F)C(F)(F)C(F)(F)C(F)(F)F (stereo not given) [2-(N-(4-nitrobenzyl)-2,2,12,12,15,15,18,18,18-nonafluorobutan-2-ylsulfonamido)-N-hydroxypropanamide]",11
2,"CC(C(=O)NO)N(Cc1ccc([N+](=O)[O-])cc1)C(=O)Nc1ccc(F)cc1F (stereo not given) [2-[3-(2,4-Difluoro-phenyl)-1-(4-nitro-benzyl)-ureido]-N-hydroxy-propionamide]",15
3,"CC(C(=O)O)N(Cc1ccc([N+](=O)[O-])cc1)C(=O)Nc1ccc(F)cc1F (stereo not given) [2-[3-(2,4-Difluoro-phenyl)-1-(4-nitro-benzyl)-ureido]-propionic acid]",6.2
4,"CC(C(=O)NO)N(Cc1ccc([N+](=O)[O-])cc1)C(=O)Nc1ccc(Cl)c(Cl)c1 (stereo not given) [2-[3-(3,4-Dichloro-phenyl)-1-(4-nitro-benzyl)-ureido]-N-hydroxy-propionamide]",13
5,"CC(C(=O)O)N(Cc1ccc([N+](=O)[O-])cc1)C(=O)Nc1ccc(Cl)c(Cl)c1 (stereo not given) [2-[3-(3,4-Dichloro-phenyl)-1-(4-nitro-benzyl)-ureido]-propionic acid]",5
6,CC(C(=O)NO)N(Cc1ccc([N+](=O)[O-])cc1)C(=O)Nc1cccc(Cl)c1 (stereo not given) [2-[3-(3-Chloro-phenyl)-1-(4-nitro-benzyl)-ureido]-N-hydroxy-propionamide],14
7,CC(C(=O)O)N(Cc1ccc([N+](=O)[O-])cc1)C(=O)Nc1cccc(Cl)c1 (stereo not given) [2-[3-(3-Chloro-phenyl)-1-(4-nitro-benzyl)-ureido]-propionic acid],6.1
8,CC(C(=O)NO)N(Cc1ccc([N+](=O)[O-])cc1)C(=O)Nc1ccc(Cl)cc1 (stereo not given) [2-[3-(4-Chloro-phenyl)-1-(4-nitro-benzyl)-ureido]-N-hydroxy-propionamide],18
9,CC(C(=O)O)N(Cc1ccc([N+](=O)[O-])cc1)C(=O)Nc1ccc(Cl)cc1 (stereo not given) [2-[3-(4-Chloro-phenyl)-1-(4-nitro-benzyl)-ureido]-propionic acid],6.5
10,CC(C(=O)NO)N(Cc1ccc([N+](=O)[O-])cc1)C(=O)Nc1ccc(F)cc1 (stereo not given) [2-[3-(4-Fluoro-phenyl)-1-(4-nitro-benzyl)-ureido]-N-hydroxy-propionamide],12
11,CC(C(=O)O)N(Cc1ccc([N+](=O)[O-])cc1)C(=O)Nc1ccc(F)cc1 (stereo not given) [2-[3-(4-Fluoro-phenyl)-1-(4-nitro-benzyl)-ureido]-propionic acid],5.4
12,CC(C(=O)NO)N(Cc1ccc([N+](=O)[O-])cc1)C(=S)NC(=O)c1ccccc1 (stereo not given) [2-[3-Benzoyl-1-(4-nitro-benzyl)-thioureido]-N-hydroxy-propionamide],6
13,CC(C(=O)O)N(Cc1ccc([N+](=O)[O-])cc1)C(=S)NC(=O)c1ccccc1 (stereo not given) [2-[3-Benzoyl-1-(4-nitro-benzyl)-thioureido]-propionic acid],0.9
14,CC(C(=O)O)N(Cc1ccc([N+](=O)[O-])cc1)C(=O)Nc1cccc2ccccc12 (stereo not given) [2-[3-Naphthalen-1-yl-1-(4-nitro-benzyl)-ureido]-propionic acid],4.6
15,"CC(C(=O)NO)N(Cc1ccc([N+](=O)[O-])cc1)Sc1ccc([N+](=O)[O-])cc1[N+](=O)[O-] (stereo not given) [2-[(2,4-Dinitro-phenylsulfanyl)-(4-nitro-benzyl)-amino]-N-hydroxy-propionamide]",9
16,"CC(C(=O)O)N(Cc1ccc([N+](=O)[O-])cc1)Sc1ccc([N+](=O)[O-])cc1[N+](=O)[O-] (stereo not given) [2-[(2,4-Dinitro-phenylsulfanyl)-(4-nitro-benzyl)-amino]-propionic acid]",5.1
17,"CC(C(=O)NO)N(Cc1ccc([N+](=O)[O-])cc1)S(=O)(=O)c1cc(Cl)ccc1Cl (stereo not given) [2-[(2,5-Dichloro-benzenesulfonyl)-(4-nitro-benzyl)-amino]-N-hydroxy-propionamide]",13
18,"CC(C(=O)O)N(Cc1ccc([N+](=O)[O-])cc1)S(=O)(=O)c1cc(Cl)ccc1Cl (stereo not given) [2-[(2,5-Dichloro-benzenesulfonyl)-(4-nitro-benzyl)-amino]-propionic acid]",3.6
19,CC(C(=O)O)N(Cc1ccc([N+](=O)[O-])cc1)S(=O)(=O)c1ccccc1[N+](=O)[O-] (stereo not given) [2-[(2-Nitro-benzenesulfonyl)-(4-nitro-benzyl)-amino]-propionic acid],4.8
20,"CC(C(=O)NO)N(Cc1ccc([N+](=O)[O-])cc1)S(=O)(=O)c1cc(Cl)cc(Cl)c1O (stereo not given) [2-[(3,5-Dichloro-2-hydroxy-benzenesulfonyl)-(4-nitro-benzyl)-amino]-N-hydroxy-propionamide]",12
21,"CC(C(=O)O)N(Cc1ccc([N+](=O)[O-])cc1)S(=O)(=O)c1cc(Cl)cc(Cl)c1O (stereo not given) [2-[(3,5-Dichloro-2-hydroxy-benzenesulfonyl)-(4-nitro-benzyl)-amino]-propionic acid]",2.5
22,CC(C(=O)O)N(Cc1ccc([N+](=O)[O-])cc1)S(=O)(=O)c1ccc([N+](=O)[O-])c(Cl)c1 (stereo not given) [2-[(3-Chloro-4-nitro-benzenesulfonyl)-(4-nitro-benzyl)-amino]-propionic acid],3.3
23,CC(C(=O)O)N(Cc1ccc([N+](=O)[O-])cc1)S(=O)(=O)c1cccc([N+](=O)[O-])c1 (stereo not given) [2-[(3-Nitro-benzenesulfonyl)-(4-nitro-benzyl)-amino]-propionic acid],5.5

row,Structure (SMILES),Ki [µM]
1,COc1ccc(S(=O)(=O)N(Cc2ccc([N+](=O)[O-])cc2)C(C)C(=O)O)cc1NC(=O)OC(C)(C)C (stereo not given) [2-[(3-tert-Butoxycarbonylamino-4-methoxy-benzenesulfonyl)-(4-nitro-benzyl)-amino]-propionic acid],2.1
2,CC(C(=O)O)N(Cc1ccc([N+](=O)[O-])cc1)S(=O)(=O)c1cccc(NC(=O)OC(C)(C)C)c1 (stereo not given) [2-[(3-tert-Butoxycarbonylamino-benzenesulfonyl)-(4-nitro-benzyl)-amino]-propionic acid],2.6
3,CC(=O)c1ccc(S(=O)(=O)N(Cc2ccc([N+](=O)[O-])cc2)C(C)C(=O)NO)cc1 (stereo not given) [2-[(4-Acetyl-benzenesulfonyl)-(4-nitro-benzyl)-amino]-N-hydroxy-propionamide],9
4,CC(=O)c1ccc(S(=O)(=O)N(Cc2ccc([N+](=O)[O-])cc2)C(C)C(=O)O)cc1 (stereo not given) [2-[(4-Acetyl-benzenesulfonyl)-(4-nitro-benzyl)-amino]-propionic acid],2.1
5,CC(=O)Nc1ccc(S(=O)(=O)N(Cc2ccc([N+](=O)[O-])cc2)C(C)C(=O)NO)cc1 (stereo not given) [2-[(4-Acetylamino-benzenesulfonyl)-(4-nitro-benzyl)-amino]-N-hydroxy-propionamide],11
6,CC(=O)Nc1ccc(S(=O)(=O)N(Cc2ccc([N+](=O)[O-])cc2)C(C)C(=O)O)cc1 (stereo not given) [2-[(4-Acetylamino-benzenesulfonyl)-(4-nitro-benzyl)-amino]-propionic acid],3.1
7,CC(C(=O)NO)N(Cc1ccc([N+](=O)[O-])cc1)S(=O)(=O)c1ccc(Br)cc1 (stereo not given) [2-[(4-Bromo-benzenesulfonyl)-(4-nitro-benzyl)-amino]-N-hydroxy-propionamide],30
8,CC(C(=O)O)N(Cc1ccc([N+](=O)[O-])cc1)S(=O)(=O)c1ccc(Br)cc1 (stereo not given) [2-[(4-Bromo-benzenesulfonyl)-(4-nitro-benzyl)-amino]-propionic acid],10
9,CC(C(=O)NO)N(Cc1ccc([N+](=O)[O-])cc1)S(=O)(=O)c1ccc(Cl)cc1 (stereo not given) [2-[(4-Chloro-benzenesulfonyl)-(4-nitro-benzyl)-amino]-N-hydroxy-propionamide],32
10,CC(C(=O)O)N(Cc1ccc([N+](=O)[O-])cc1)S(=O)(=O)c1ccc(Cl)cc1 (stereo not given) [2-[(4-Chloro-benzenesulfonyl)-(4-nitro-benzyl)-amino]-propionic acid],9
11,CC(C(=O)NO)N(Cc1ccc([N+](=O)[O-])cc1)S(=O)(=O)c1ccc(F)cc1 (stereo not given) [2-[(4-Fluoro-benzenesulfonyl)-(4-nitro-benzyl)-amino]-N-hydroxy-propionamide],35
12,CC(C(=O)O)N(Cc1ccc([N+](=O)[O-])cc1)S(=O)(=O)c1ccc(F)cc1 (stereo not given) [2-[(4-Fluoro-benzenesulfonyl)-(4-nitro-benzyl)-amino]-propionic acid],10
13,CC(C(=O)O)N(Cc1ccc([N+](=O)[O-])cc1)S(=O)(=O)c1ccc(I)cc1 (stereo not given) [2-[(4-Iodo-benzenesulfonyl)-(4-nitro-benzyl)-amino]-propionic acid],12
14,COc1ccc(S(=O)(=O)N(Cc2ccc([N+](=O)[O-])cc2)C(C)C(=O)O)cc1 (stereo not given) [2-[(4-Methoxy-benzenesulfonyl)-(4-nitro-benzyl)-amino]-propionic acid],5.2
15,CC(C(=O)O)N(Cc1ccc([N+](=O)[O-])cc1)S(=O)(=O)c1ccc([N+](=O)[O-])cc1 (stereo not given) [2-[(4-Nitro-benzenesulfonyl)-(4-nitro-benzyl)-amino]-propionic acid],5.3
16,"Cc1cc(C)c(S(=O)(=O)N(Cc2ccc([N+](=O)[O-])cc2)C(C)C(=O)O)c(C)c1 (stereo not given) [2-[(4-Nitro-benzyl)-(2,4,6-trimethyl-benzenesulfonyl)-amino]-propionic acid]",6
17,CC(C(=O)O)N(Cc1ccc([N+](=O)[O-])cc1)Sc1ccccc1[N+](=O)[O-] (stereo not given) [2-[(4-Nitro-benzyl)-(2-nitro-phenylsulfanyl)-amino]-propionic acid],6.3
18,CC(C(=O)O)N(Cc1ccc([N+](=O)[O-])cc1)S(=O)(=O)c1cccc(C(F)(F)F)c1 (stereo not given) [2-[(4-Nitro-benzyl)-(3-trifluoromethyl-benzenesulfonyl)-amino]-propionic acid],0.3
19,CC(C(=O)O)N(Cc1ccc([N+](=O)[O-])cc1)Sc1ccc([N+](=O)[O-])cc1 (stereo not given) [2-[(4-Nitro-benzyl)-(4-nitro-phenylsulfanyl)-amino]-propionic acid],5.5
20,CC(C(=O)O)N(Cc1ccc([N+](=O)[O-])cc1)S(=O)(=O)C(F)(F)C(F)(F)C(F)(F)C(F)(F)F (stereo not given) [2-[(4-Nitro-benzyl)-(nonafluorobutane-1-sulfonyl)-amino]-propionic acid],2.3
21,CC(C(=O)O)N(Cc1ccc([N+](=O)[O-])cc1)S(=O)(=O)c1cccc2cccnc12 (stereo not given) [2-[(4-Nitro-benzyl)-(quinoline-8-sulfonyl)-amino]-propionic acid],1.2
22,CC(C(=O)O)N(Cc1ccc([N+](=O)[O-])cc1)S(=O)(=O)c1cccs1 (stereo not given) [2-[(4-Nitro-benzyl)-(thiophene-2-sulfonyl)-amino]-propionic acid],2.1
